In US20250197356A1, “METHOD FOR SYNTHESIZING NUCIFERINE OR DERIVATIVE THEREOF, DERIVATIVE OF NUCIFERINE AND USE THEREOF” (HUAQIAO UNIVERSITY, priority 2022, published 2025):

How the values were obtained:
[1] = test system: TNF-α; assay: Immunohistochemistry of liver of hyperlipidemia rats; format: in vivo, SD rats; conditions: compared with the model group, 20 mg/(kg d)
Text: (§1) Animals: 54 SPF-grade SD rats, weighing 120±10 g, provided by Laboratory Animal Business Department, Shanghai Family Planning Research Institute, China, Animal license number: SCXK(Shanghai)2018-0006.
(§2) Drug to be tested: Nuciferine purchased from Shanghai Aladdin Biochemical Technology Co., Ltd., China, and its derivatives (purity >99%) that were synthesized in the laboratory by the methods of Examples 2-7.
(§3) Other reagents: AST, ALT, TC, TG, NEFA, Bun, Cr, CAT, GSH-Px, GSH, MDA test kits, purchased from Nanjing Jiancheng Bioengineering Institute, China; HL and PL test kits, purchased from Jianglai Biotechnology Co., Ltd., China; experimental reagents such as anhydrous ethanol, xylene, isopropanol neutral gum, purchased from Sinopharm Chemical Reagent Co., Ltd., China; HE dye solution, DAB color development agent, and oil red O dye solution, purchased from KeyGEN Biotechnology Co., Ltd, China; Antibodies IL-6 and TNF-α, purchased from Abcam Limited.
(§4) Modeling scheme: 54 adult rats of 120±10 g were selected and fed adaptively for three days. They were then randomly divided to 6 groups, 9 animals for each group. They were blank control group, model group, positive control group, nuciferine group, and nuciferine structural modification group. The blank control group was fed with normal diet. […] The feeding and modeling time was 5 weeks. […]

[2] = test system: IL-6; assay: as above; format: in vivo, SD rats; conditions: compared with the model group, 20 mg/(kg d)
Text: as §1, §2, §3, §4

[3] = TCMSP database, screening threshold OB ≥30%; cited from earlier work
[4] = test system: hyperlipidemia rats; assay: Liver tissue homogenate biochemical indicators in high-fat diet hyperlipidemia rats; format: in vivo, SD rats; conditions: for CAT (U/mgprot) / GSH (μmol/gprot) / GSH-Px (U/mgprot) / HL (U/mgprot) / LPL (U/mgprot) / MDA (nmol/mgprot) / NEFA (μmol/g prot) / TG (mmol/g prot): liver tissue, 20 mg/(kg d) by gastric gavage, 4 weeks, x ± s, n = 9
Text: as §1, §2, §3
(§5) Modeling scheme: 54 adult rats of 120±10 g were selected and fed adaptively for three days. They were then randomly divided to 6 groups, 9 animals for each group. They were blank control group, model group, positive control group, nuciferine group, and nuciferine structural modification group. The blank control group was fed with normal diet. […] The feeding and modeling time was 5 weeks. Within 4 weeks after modeling, continuous administration was performed: the blank control group and model group were given 0.2 mL of distilled water by gastric gavage; the positive control group was administrated 20 mg/(kg d) of simvastatin; while the treatment group was administrated 20 mg/(kg d) of nuciferine or 20 mg/(kg d) of a derivative of nuciferine (compounds 6a-6f).
(§6) Liver tissue sample collection: the rats were killed by dislocation, and the liver was taken out immediately after death, which was observed by naked eye to find out whether there was abnormal color and lesions, and was then rinsed with ice normal saline. The left lobe of the liver was quickly cut into small pieces and fixed in 10% formaldehyde overnight for sectioning. The tissue of the right lobe of the liver was quickly wrapped in tin box and stored at −80° C. for later use.
Preparation of 10% liver homogenate: the liver wrapped in tin box and stored in the ultra-low temperature freezer at −80° C. was taken out, and quickly placed on an ice box. 0.2 g of liver tissue was accurately taken, and ice normal saline with a volume 9 times that of the liver issue was added thereto. 10% tissue homogenate was formed by grounding and mixing, and then centrifuged at 3000 r/min and 4° C. for 10 min. The supernatant was collected for later use.
(§7) Biochemical indicator determination: indicators AST, ALT, TC, TG, NEFA, Bun, Cr, CAT, GSH-Px, GSH, MDA, HL, PL were determined according to the instructions of the kits.

[5] = test system: hyperlipidemia rats; assay: Liver and kidney indexes in high-fat diet hyperlipidemia rats; format: in vivo, SD rats; conditions: 20 mg/(kg d) by gastric gavage, 4 weeks, x ± s, n = 9
Text: as §1
(§8) Modeling scheme: 54 adult rats of 120±10 g were selected and fed adaptively for three days. They were then randomly divided to 6 groups, 9 animals for each group. They were blank control group, model group, positive control group, nuciferine group, and nuciferine structural modification group. The blank control group was fed with normal diet. […] The feeding and modeling time was 5 weeks.
as §6

[6] = test system: hyperlipidemia rats; assay: Oil red O staining of liver in hyperlipidemia rats; format: in vivo, SD rats; conditions: compared with the model group, 20 mg/(kg d)
Text: as §1, §2
as §5, with “6a-6f). […]” for “6a-6f).”

[7] = test system: hyperlipidemia rats; assay: Serum biochemical indicators in high-fat diet hyperlipidemia rats; format: in vivo, SD rats; conditions: for LDL-C / TC / TG / ALT (U/L) / AST (U/L) / Bun / Cr: serum, 20 mg/(kg d) by gastric gavage, 4 weeks; for ALT (U/L) / AST (U/L) / Bun / Cr: x ± s, n = 9
Text: as §1, §2, §3, §5
Blood sample collection: 24 h after the last gastric gavage administration, eyeballs were taken out and blood was drawn. Whole blood was collected in an EP tube, and centrifuged at 3000 r/min and 4° C. for 10 min, and the supernatant was collected and stored at −20° C. for blood biochemical indicator test.
as §7

[8] = test system: hyperlipidemia rats; assay: Liver appearance and HE histopathological observation in hyperlipidemia rats; format: in vivo, SD rats; conditions: compared with the model group, 20 mg/(kg d)
Text: as §1, §8, §6

SMILES | CAT (U/mgprot) [4] [U/mgprot] | GSH (μmol/gprot) [4] [μmol/gprot] | GSH-Px (U/mgprot) [4] [U/mgprot] | HL (U/mgprot) [4] [U/mgprot] | LPL (U/mgprot) [4] [U/mgprot] | MDA (nmol/mgprot) [4] [nmol/mgprot] | NEFA (μmol/g prot) [4] [μmol/g prot] | TG (mmol/g prot) [4] [mmol/g prot] | Kidney index (%) [5] [%] | Liver index (%) [5] [%] | LDL-C [7] [mmol/L] | TC [7] [mmol/L] | TG [7] [mmol/L] | ALT (U/L) [7] [U/L] | AST (U/L) [7] [U/L] | Bun [7] [mmol/L] | Cr [7] [µmol/L] | also measured
COc1cc2c3c(c1OC)-c1ccccc1C[C@H]3N(C)CC2 [Nuciferine] | 28.44 ± 3.34 | 377.68 ± 137.77 | 720.65 ± 59.57 | 0.47 ± 0.05 | 0.43 ± 0.07 | 0.92 ± 0.15 | 99.87 ± 8.25 | 0.08 ± 0.01 | 0.68 ± 0.04 | 4.52 ± 0.30 | 0.53 ± 0.12 | 1.90 ± 0.19 | 0.48 ± 0.04 | 13.97 ± 5.71 | 6.43 ± 1.56 | 3.27 ± 0.22 | 52.59 ± 4.81 | Expression level of TNF-α in liver (FIG. 12) [1]: decrease; Expression level of IL-6 in liver (FIG. 11) [2]: decrease; OB/% (oral bioavailability) [3]: 34.43%; HL and LPL contents in liver tissue, result in words ([4]; compared with the model group): best effect; NEFA content in liver tissue, result in words ([4]; compared with the model group): significantly decreases; Oil red O-stained liver sections: lipid accumulation (FIG. 10) [6]: reduced fat accumulation; Content of HDL-C in the serum, result in words ([7]; compared with the model group): significantly increases; Serum AST and ALT contents, result in words ([7]; compared with the model group): best effect; HE-stained liver tissue: lipid vacuoles and inflammatory infiltration (FIG. 9) [8]: lipid vacuoles in hepatocytes are significantly reduced
COc1cc2c3c(c1OC)-c1ccccc1CC3N(C(=O)c1ccc(F)cc1)CC2 (centres unmarked) [Compound 6b, p-Fluorobenzoylnuciferine] | 25.90 ± 4.29 | 365.04 ± 71.78 | 532.14 ± 30.92 | 0.51 ± 0.05 | 0.29 ± 0.10 | 1.03 ± 0.33 | 106.32 ± 22.95 | 0.13 ± 0.02 | 0.68 ± 0.02 | 4.58 ± 0.23 | 0.68 ± 0.16 | 2.01 ± 0.14 | 0.57 ± 0.08 | 16.43 ± 9.51 | 7.91 ± 2.21 | 3.48 ± 0.24 | 53.90 ± 1.81 | Liver appearance (photographs, FIG. 8) [8]: more brittle
